In patent US8129366B2, “VLA-4 inhibitory drug” (Daiichi Sankyo Company, Limited, priority 2005, dated 2012):

Target: T1, hα4 and β1 integrins (Homo sapiens, UniProt P05556+P13612)
T1 construct: expressed in transfected cells; host or cells: CHO cells
Assay: In vitro inhibition of binding between CHO cells expressing hα4 and β1 integrins and Eu3+-hVCAM-1 D1D7-IgG
Details: for Ki: CHO cells expressing hα4 and β1 integrins, Eu3+-hVCAM-1 D1D7-IgG ligand, without HSA; for IC50: in the presence of 3% human serum albumin (HSA final concentration 3%)
Protocol: CHO cells which forcibly expressed hα4 and β1 integrins through transfection thereof, were inoculated into a Costar 3599 plate (3×10^4 cells/100 μl/well), and cultured for two days. The cells in the wells were washed two times with buffer A*, and then Eu^3+-hVCAM-1 D1D7-IgG diluted with assay buffer** to 2 nM was added in an amount of 50 μl/well. The substance under test diluted with 26 DMSO-assay buffer (in the co-presence or absence of 6% human serum albumin) was added in an amount of 50 μl/well (adding separately diluted solution to the wells for performing Scatchard analysis), the contents were stirred for 5 minutes with a plate mixer, and then the plate was left to stand still for one hour at room temperature. The binding inhibitory activity in the presence of human serum albumin (HSA) was examined by diluting the specimen with 26 DMSO-assay buffer containing 6% HSA (SIGMA Corp., c/n A-1653), and adding the resultant (HSA final concentration 3%). After 30 to 60 minutes of the addition of specimen, the plate contents were washed 4 times with buffer A at 4° C., an enhancing reagent (DELFIA SA) was added in an amount of 100 μl/well, and the plate was shaken for 5 minutes using a plate mixer. Subsequently, the fluorescence intensity was measured with a time-resolved fluorometer (DELFIA Wallac). The IC50 of the substance under test (the concentration for 50% inhibition of the binding between CHO cells and Eu^3+-hVCAM-1 D1D7-IgG) was determined from the binding rate obtained from the calculating expression of [(FT−FNS)−(FI−FNS)]/[(FT−FNS)]×100. Here, FT represents the fluorescence intensity of a well not containing the substance under test; FNS represents the fluorescence intensity of a well not containing the substance under test and hVCAM-1 D1D7-IgG; and FI represents the fluorescence intensity of a well containing the substance under test. The Kd value which represents the strength of binding, and Bmax (maximum binding amount) were estimated to be in the range of 0.06 to 20 nM according to the Scatchard analysis method. The evaluation results of the Ki value of the substance under test, and of the IC50 value in the presence of 3% HSA are presented in Tables 2 to 7.
The Ki value was calculated according to the above-described expression. ([L] is the ligand concentration)
[* buffer A: 25 mM HEPES (pH 7.5), 150 mM NaCl, 1 mM Ca^2+, 1 mM Mg^2+, 4 mM Mn2+;
** assay buffer: 25 mM HEPES (pH=7.5), 150 mM NaCl, 1 mM Ca^2+, 1 mM Mg^2+, 4 mM Mn^2+, 0.1% BSA, 20 μM DTPA, with/without 6% ALBUMIN, HUMAN SERUM (C/N A-1653, SIGMA)]

T1 sequence (P13612 34-1032): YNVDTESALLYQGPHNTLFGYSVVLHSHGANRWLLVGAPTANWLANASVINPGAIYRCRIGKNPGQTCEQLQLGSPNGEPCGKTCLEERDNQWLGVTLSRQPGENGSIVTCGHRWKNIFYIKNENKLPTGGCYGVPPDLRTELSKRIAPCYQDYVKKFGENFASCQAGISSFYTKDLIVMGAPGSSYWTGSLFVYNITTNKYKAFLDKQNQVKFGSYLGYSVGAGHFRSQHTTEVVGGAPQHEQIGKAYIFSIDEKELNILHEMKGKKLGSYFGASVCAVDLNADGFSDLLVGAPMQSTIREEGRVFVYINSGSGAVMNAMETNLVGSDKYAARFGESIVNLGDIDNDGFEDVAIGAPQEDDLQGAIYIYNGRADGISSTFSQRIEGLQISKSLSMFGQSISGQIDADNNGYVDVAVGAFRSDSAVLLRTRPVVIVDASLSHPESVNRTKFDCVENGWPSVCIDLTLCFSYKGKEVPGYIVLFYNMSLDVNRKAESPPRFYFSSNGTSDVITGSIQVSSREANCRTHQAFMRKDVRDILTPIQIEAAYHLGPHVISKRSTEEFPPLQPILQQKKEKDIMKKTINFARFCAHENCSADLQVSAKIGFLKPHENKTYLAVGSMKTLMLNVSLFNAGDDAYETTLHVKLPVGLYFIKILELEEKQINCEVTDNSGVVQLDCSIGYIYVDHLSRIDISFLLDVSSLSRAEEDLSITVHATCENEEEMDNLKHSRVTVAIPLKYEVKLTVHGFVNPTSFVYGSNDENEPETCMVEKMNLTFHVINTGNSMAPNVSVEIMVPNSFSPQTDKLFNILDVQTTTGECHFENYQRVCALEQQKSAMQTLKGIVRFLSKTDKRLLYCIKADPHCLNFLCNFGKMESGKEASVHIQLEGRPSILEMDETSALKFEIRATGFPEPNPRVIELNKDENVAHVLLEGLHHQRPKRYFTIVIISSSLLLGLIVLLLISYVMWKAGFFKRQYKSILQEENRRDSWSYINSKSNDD
T1 sequence (P05556 21-798): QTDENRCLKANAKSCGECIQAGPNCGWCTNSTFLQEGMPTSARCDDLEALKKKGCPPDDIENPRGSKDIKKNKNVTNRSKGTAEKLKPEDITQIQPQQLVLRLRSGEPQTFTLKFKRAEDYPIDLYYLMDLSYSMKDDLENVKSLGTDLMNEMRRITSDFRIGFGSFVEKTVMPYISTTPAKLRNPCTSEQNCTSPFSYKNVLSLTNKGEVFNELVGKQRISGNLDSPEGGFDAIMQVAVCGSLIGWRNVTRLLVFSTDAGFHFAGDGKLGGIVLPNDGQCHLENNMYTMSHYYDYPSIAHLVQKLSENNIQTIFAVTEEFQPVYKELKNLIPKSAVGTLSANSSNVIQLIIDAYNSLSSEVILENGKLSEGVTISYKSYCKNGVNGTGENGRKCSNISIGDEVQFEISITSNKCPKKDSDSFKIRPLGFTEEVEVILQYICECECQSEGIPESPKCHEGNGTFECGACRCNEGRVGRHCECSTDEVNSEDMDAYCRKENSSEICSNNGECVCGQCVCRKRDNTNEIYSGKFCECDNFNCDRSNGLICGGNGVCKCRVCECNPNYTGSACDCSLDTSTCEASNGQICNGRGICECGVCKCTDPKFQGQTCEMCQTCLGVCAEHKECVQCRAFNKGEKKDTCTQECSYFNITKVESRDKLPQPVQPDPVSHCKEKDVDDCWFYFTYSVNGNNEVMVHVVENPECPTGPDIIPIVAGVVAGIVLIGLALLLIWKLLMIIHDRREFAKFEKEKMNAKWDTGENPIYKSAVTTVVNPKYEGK

| SMILES | Ki [nM] | IC50 [nM] |
| --- | --- | --- |
| CN(C)C1CN([C@H]2C[C@@H](CO[C@H]3CC[C@H](C(=O)O)CC3)N(C(=O)Cc3cc(Cl)c(NC(=O)c4csc5ccccc45)cc3Cl)C2)C1 [Example 23, Trans-4-[1-[[4-[(benzo[b]thiophen-3-ylcarbonyl)amino]-2,5-dichlorophenyl]acetyl]-(4S)-[3-(N,N-dimethylamino)azetidin-1-yl]-(2S)-pyrrolidinylmethoxy]cyclohexanecarboxylic acid] | 2.5 | 14 |
| CO[C@H]1CN([C@H]2C[C@@H](CO[C@H]3CC[C@H](C(=O)O)CC3)N(C(=O)Cc3cc(Cl)c(NC(=O)c4coc5ccccc45)cc3F)C2)C[C@H]1OC [Example 59, Trans-4-[1-[[4-[(benzo[b]furan-3-ylcarbonyl)amino]-5-chloro-2-fluorophenyl]acetyl]-(4S)-(cis-3,4-dimethoxypyrrolidin-1-yl)-(2S)-pyrrolidinylmethoxy]cyclohexanecarboxylic acid] | 3 | 8.1 |
| Cn1cc(C(=O)Nc2cc(Cl)c(CC(=O)N3C[C@@H](N4CC5CC4CO5)C[C@H]3CO[C@H]3CC[C@H](C(=O)O)CC3)cc2Cl)c2ccccc21 (stereo partly drawn) [Example 162, Trans-4-[1-[[2,5-dichloro-4-[1-methyl-1H-indol-3-ylcarbonylamino]phenyl]acetyl]-(4S)-[(1S,4S)-2-oxa-5-azabicyclo[2.2.1]heptan-5-yl]-(2S)-pyrrolidinylmethoxy]cyclohexanecarboxylic acid] | 6.5 | 49 |
| CN1CCN([C@H]2C[C@@H](CO[C@H]3CC[C@H](C(=O)O)CC3)N(C(=O)Cc3cc(Cl)c(NC(=O)c4cn(C)c5ccccc45)cc3Cl)C2)CC1 [Example 112, Trans-4-[1-[[2,5-dichloro-4-[(1-methyl-1H-indol-3-ylcarbonyl)amino]phenyl]acetyl]-(4S)-(4-methylpiperazin-1-yl)-(2S)-pyrrolidinylmethoxy]cyclohexanecarboxylic acid] | 4.2 | 9.5 |
| CC(C)(C)N1CCN([C@H]2C[C@@H](CO[C@H]3CC[C@H](C(=O)O)CC3)N(C(=O)Cc3cc(Cl)c(NC(=O)c4coc5ccccc45)cc3Cl)C2)CC1 [Example 114, Trans-4-[1-[[4-[(benzo[b]furan-3-ylcarbonyl)amino]-2,5-dichlorophenyl]acetyl]-(4S)-[4-(tert-butyl)piperazin-1-yl]-(2S)-pyrrolidinylmethoxy]cyclohexanecarboxylic acid] | 3 | 8.9 |
| Cn1cc(C(=O)Nc2cc(Cl)c(CC(=O)N3C[C@@H](N4CCCCC4)C[C@H]3CO[C@H]3CC[C@H](C(=O)O)CC3)cc2Cl)c2ccccc21 [Example 96, Trans-4-[1-[[2,5-dichloro-4-[(1-methyl-1H-indol-3-ylcarbonyl)amino]phenyl]acetyl]-(4S)-(piperidin-1-yl)-(2S)-pyrrolidinylmethoxy]cyclohexanecarboxylic acid] | 3.9 | 7.4 |
| O=C(Nc1cc(Cl)c(CC(=O)N2C[C@@H](N3CCCCC3)C[C@H]2CO[C@H]2CC[C@H](C(=O)O)CC2)cc1Cl)c1csc2ccccc12 [Example 95, Trans-4-[1-[[4-[(benzo[b]thiophen-3-ylcarbonyl)amino]-2,5-dichlorophenyl]acetyl]-(4S)-(piperidin-1-yl)-(2S)-pyrrolidinylmethoxy]cyclohexanecarboxylic acid] | 1.3 | 5.3 |
| O=C(Nc1cc(F)c(CC(=O)N2C[C@@H](N3CCC3)C[C@H]2CO[C@H]2CC[C@H](C(=O)O)CC2)cc1Cl)c1csc2ccccc12 [Example 9, Trans-4-[(4S)-(azetidin-1-yl)-1-[[4-[(benzo[b]thiophen-3-ylcarbonyl)amino]-5-chloro-2-fluorophenyl]acetyl]-(2S)-pyrrolidinylmethoxy]cyclohexanecarboxylic acid] | 1.4 | 8.2 |
| CN(C)S(=O)(=O)N1CCN([C@H]2C[C@@H](CO[C@H]3CC[C@H](C(=O)O)CC3)N(C(=O)Cc3cc(Cl)c(NC(=O)c4cn(C)c5ccccc45)cc3Cl)C2)CC1 [Example 151, Trans-4-[1-[[2,5-dichloro-4-[(1-methyl-1H-indol-3-ylcarbonyl)amino]phenyl]acetyl]-(4S)-(4-N,N-dimethylsulfamoylpiperazin-1-yl)-(2S)-pyrrolidinylmethoxy]cyclohexanecarboxylic acid] | 4.2 | 26 |
| CO[C@@H]1CN([C@H]2C[C@@H](CO[C@H]3CC[C@H](C(=O)O)CC3)N(C(=O)Cc3cc(Cl)c(NC(=O)c4cn(C)c5ccccc45)cc3Cl)C2)C[C@H]1OC [Example 64, Trans-4-[1-[[2,5-dichloro-4-[(1-methyl-1H-indol-3-ylcarbonyl)amino]phenyl]acetyl]-(4S)-[(3R,4R)-dimethoxypyrrolidin-1-yl]-(2S)-pyrrolidinylmethoxy]cyclohexanecarboxylic acid] | 5 | 33 |
| CS(=O)(=O)N1CCN([C@H]2C[C@@H](CO[C@H]3CC[C@H](C(=O)O)CC3)N(C(=O)Cc3cc(Cl)c(NC(=O)c4coc5ccccc45)cc3F)C2)CC1 [Example 150, Trans-4-[1-[[4-[(benzo[b]furan-3-ylcarbonyl)amino]-5-chloro-2-fluorophenyl]acetyl]-(4S)-(4-methanesulfonylpiperazin-1-yl)-(2S)-pyrrolidinylmethoxy]cyclohexanecarboxylic acid] | 1.6 | 6.8 |
| COC[C@H]1CCCN1[C@H]1C[C@@H](CO[C@H]2CC[C@H](C(=O)O)CC2)N(C(=O)Cc2cc(Cl)c(NC(=O)c3csc4ccccc34)cc2F)C1 [Example 44, Trans-4-[1-[[4-[(benzo[b]thiophen-3-ylcarbonyl)amino]-5-chloro-2-fluorophenyl]acetyl]-(4S)-[(2R)-methoxymethylpyrrolidin-1-yl]-(2S)-pyrrolidinylmethoxy]cyclohexanecarboxylic acid] | 6.8 | 24 |
| CCOC1CCN([C@H]2C[C@@H](CO[C@H]3CC[C@H](C(=O)O)CC3)N(C(=O)Cc3cc(Cl)c(NC(=O)c4coc5ccccc45)cc3Cl)C2)CC1 [Example 105, Trans-4-[1-[[4-[(benzo[b]furan-3-ylcarbonyl)amino]-2,5-dichlorophenyl]acetyl]-(4S)-(4-ethoxypiperidin-1-yl)-(2S)-pyrrolidinylmethoxy]cyclohexanecarboxylic acid] | 2 | 15 |
| O=C(Nc1cc(Cl)c(CC(=O)N2C[C@@H](N3CCCN(C4CC4)CC3)C[C@H]2CO[C@H]2CC[C@H](C(=O)O)CC2)cc1Cl)c1csc2ccccc12 [Example 169, Trans-4-[1-[[4-[(benzo[b]thiophen-3-ylcarbonyl)amino]2,5-dichlorophenyl]acetyl]-(4S)-(4-cyclopropyl-[1,4]-diazepan-1-yl)-(2S)-pyrrolidinylmethoxy]cyclohexanecarboxylic acid] | 1.1 | 5.9 |
| O=C(Nc1cc(Cl)c(CC(=O)N2C[C@@H](N3CCN(C4CC4)CC3)C[C@H]2CO[C@H]2CC[C@H](C(=O)O)CC2)cc1Cl)c1coc2ccccc12 [Example 140] | 1.8 | 7.6 |
| C[C@@H]1CN([C@H]2C[C@@H](CO[C@H]3CC[C@H](C(=O)O)CC3)N(C(=O)Cc3cc(Cl)c(NC(=O)c4csc5ccccc45)cc3F)C2)C[C@H](C)O1 [Example 79, Trans-4-[1-[[4-[(benzo[b]thiophen-3-ylcarbonyl)amino]-5-chloro-2-fluorophenyl]acetyl]-(4S)-(cis-2,6-dimethylmorpholin-4-yl)-(2S)-pyrrolidinylmethoxy]cyclohexanecarboxylic acid] | 0.74 | 4.1 |
| C[C@@H]1CC[C@@H](C)N1[C@H]1C[C@@H](CO[C@H]2CC[C@H](C(=O)O)CC2)N(C(=O)Cc2cc(Cl)c(NC(=O)c3coc4ccccc34)cc2F)C1 [Example 47, Trans-4-[1-[[4-[(benzo[b]furan-3-ylcarbonyl)amino]-5-chloro-2-fluorophenyl]acetyl]-(4S)-[(2R,5R)-dimethylpyrrolidin-1-yl]-(2S)-pyrrolidinylmethoxy]cyclohexanecarboxylic acid] | 18 | 52 |
